Data set [1] can be described thus: Determination of prodrug solubility (50 mg/mL target, HPLC of supernatant). As to conditions: thermodynamic from solid. In kind it is physicochemical. On the procedure: For each test, approximately 5-10 mg was transferred to a 10 mL glass vial. Aqueous or organic solvent was added to each vial to achieve an overall concentration of 50 mg/mL. After vortexing aggressively for 2-3 minutes and sonicating in a bath sonicator for 5 minutes, undissolved drug was spun down at 1200×g for 5 minutes to generate a pellet. The supernatant was collected and filtered through a 0.2 μm nylon syringe filter into HPLC vials for drug content analysis. Drug concentration was determined by comparing against a standard calibration curve.

In data set [2] the test system is African green monkeys. As to conditions: monkey, in vivo.
Where [3] appears, read: DMSO, organic solvent or mixture, read-out: Solubility DMSO.
[4] abbreviates: organic solvent or mixture, DCM (dichloromethane), read-out: Solubility DCM.
Where [5] appears, read: water, read-out: Solubility Water.

Converted amounts (≈) assume the structure as drawn. Like-named read-outs stand apart in the source and are kept apart here.

With `CCCCNc1cc(C(=O)O)cc(S(N)(=O)=O)c1Oc1ccccc1` [Bumetanide, reference compound], the solubility – broadly, the concentration that dissolves in the medium under given conditions – in data set [1] (setting [3]) was 25 mg/mL (≈ 68.6 mM); in data set [1] (setting [4]), 25 mg/mL (≈ 68.6 mM); in data set [1] (setting [5]), below 0.1 mg/mL. The Ocular toxicity findings entry in data set [2] is “No ocular toxicity findings”.

As for `CCCCNc1cc(C(=O)O[C@@H](C)C(=O)O[C@@H](C)C(=O)O[C@@H](C)C(=O)O[C@@H](C)C(=O)OCC)cc(S(N)(=O)=O)c1Oc1ccccc1` [Compound 2, bumetanide-ethyl-PLA (n=4)], the solubility in data set [1] (setting [3]) was above 100 mg/mL; in data set [1] (setting [4]), above 50 mg/mL; in data set [1] (setting [5]) it was below 0.1 mg/mL.

Turning to `CCOC(=O)[C@H](C)OC(=O)[C@H](C)OC(=O)[C@H](C)OC(=O)[C@H](C)OC(=O)c1cc(S(N)(=O)=O)c(Cl)cc1NCc1ccco1` [Compd 1, furosemide-ethyl-PLA (n=4)], the solubility is above 100 mg/mL in data set [1] (setting [3]), above 50 mg/mL in data set [1] (setting [4]) and below 0.1 mg/mL in data set [1] (setting [5]).

For the compound `CCOC(=O)[C@H](C)OC(=O)[C@H](C)OC(=O)[C@H](C)OC(=O)[C@H](C)OC(=O)[C@H](C)OC(=O)[C@H](C)OC(=O)c1cc(S(N)(=O)=O)c(Cl)cc1NCc1ccco1` [Compound 5, furosemide-ethyl-PLA (n=6)], the solubility in data set [1] (setting [3]) was above 100 mg/mL; in data set [1] (setting [4]), above 50 mg/mL; in data set [1] (setting [5]), below 0.1 mg/mL.
